{
  "source": "patent US20150087627A1",
  "about": "“COMBINATION OF KINASE INHIBITORS AND USES THEREOF” (Intellikine LLC, priority 2011, published 2015)",
  "key": {"[1]": {"system": "HCT-116 human colorectal cancer xenografts", "assay": "Antitumor activity, HCT-116 xenografts (Example 44)", "assay_type": "in vivo, Mus musculus", "settings": "Day 21", "method": "Compound A was prepared in PEG400 (TCAL, San Diego, Calif., USA) every 7 days and stored at room temperature, shielded from light. The vehicle used in this study was PEG400 (Sigma, St. Louis, Mo., USA).\nLow passage (passage number 8) HCT-116 cells (American Type Culture Collection ATCC, Manassas, Va., USA) were grown in McCoy's 5A (ATCC) media with 10% fetal bovine serum (FBS) (PAA Laboratories Pty Ltd, Morningside, Queensland, Australia) and supplied at a concentration of 5.0×10^7 cells/mL. HCT-116 cells (5.0×10^6/animal, 0.1-mL injection volume) were implanted SC into the flank of female athymic nude mice. The animals used in this study are described in the following table.\nFemale 9 to 10-week-old female Foxn1 nu Hsd:Athymic nude mice were inoculated SC in the flank with 5.0×10^6 HCT-116 cells. Tumor growth was monitored with vernier calipers. The MTV was calculated using the formula V=W^2×L/2. […] Tumor growth and body weight were measured twice per week. Percent TGI and body weight change were calculated on Day 21 while animals were on treatment. […] Antitumor activity was determined by calculating the percent TGI using Equation 1: % tumor growth inhibition (TGI)=(mean tumor volume [MTV] of the control group−MTV of a treated group)/MTV of the control group×100. […]\nDrug combinations were assessed for synergy using observed AUC values. […]"}, "[2]": {"assay": "Plasma insulin in nude mice (Example 41)", "assay_type": "in vivo, Mus musculus", "settings": "120 minutes after the last dose (Day 28)", "method": "Insulin was measured using Mesoscale Discovery's Mouse/Rat Insulin Kit (Rockville, Md., USA). Plasma samples collected at 120 minutes post last dose were thawed on ice and reagents from the kit were brought to room temperature. 150 μL of Blocker A Solution was added to each well, the plates were covered, and then incubated on a plate shaker (300-1000 rpm) for 1 hour at room temperature. After the first incubation, the wells were washed three times with phosphate buffered saline+Tween 20 (PBS-T), and then 40 μL of 1× Detection Antibody Solution followed by 10 μL of unknown neat samples or standards were added to the wells in duplicate. The plate was then covered and incubated on a plate shaker (300-1000 rpm) for 2 hours at room temperature. Following the second incubation, the wells were washed three times with PBS-T, and then 150 μL of 1× Read Buffer T was added to each well. The plates were immediately analyzed on the SECTOR Imager using the MSD Discovery Workbench software (Meso Scale Discovery). A 4-parameter logisitic model was utilized by the software to determine the concentrations of the unknown samples based on the standard curve it generated."}, "PTEN mutant cells": {"system": "PTEN mutant cells", "assay": "Western blot of Akt, S6 and 4EBP phosphorylation in PTEN mutant cells (FIG. 6B)", "assay_type": "cell-based"}, "[3]": {"system": "786-0 cells, a human kidney carcinoma cell line having a non-mutated PI3Kα", "assay": "In vivo efficacy in 786-0 kidney carcinoma xenograft", "parameters": "species or system mice", "settings": "FIG. 6", "method": "Compound A was administered orally at 60 and 120 mg/kg and compound A was administered orally as a solution at 1 mg/kg (QD). For example, a PI3Kα inhibitor is compared to a kinase inhibitor with specificity for mTor. […] FIG. 6C also provides biochemical potency data for the two compared inhibitors. PI3 Kinase α, β, γ and δ activity was assayed using the PI3 Kinase HTRF® assay kit (Millipore Corporation). Purified recombinant PI3Kα, PI3Kβ, PI3Kγ and PI3Kδ were obtained from Millipore Corporation. […] Emission ratios were converted into percent inhibitions and imported into GraphPad Prism software. […] IC50 values were determined using a nonlinear regression model available in GraphPad Prism 5."}},
  "data": [
    {"molecule": "Nc1nc2cc(-c3ccc4ncc(C(=O)N5CCOCC5)n4c3)ccc2o1", "note": "[Compound A]", "values": [
      {"measurement": "TGI", "setting": "[1]; 120 mg/kg PO QD for 21 days", "result": 8.2, "unit": "%"},
      {"measurement": "Mean Plasma Insulin at 2 hr.", "setting": "[2]; 60 mg/kg QD", "result": 0.7, "unit": "ng/mL"},
      {"measurement": "Plasma Insulin Fold Over Control", "setting": "[2]; 60 mg/kg QD", "result": 1.47, "unit": "fold"},
      {"measurement": "Mean Plasma Insulin at 2 hr.", "setting": "[2]; 70 mg/kg QD 3on/4off", "result": 1.51, "unit": "ng/mL"},
      {"measurement": "Plasma Insulin Fold Over Control", "setting": "[2]; 70 mg/kg QD 3on/4off", "result": 3.16, "unit": "fold"},
      {"measurement": "Mean Plasma Insulin at 2 hr.", "setting": "[2]; 140 mg/kg QD 3on/4off", "result": 2.39, "unit": "ng/mL"},
      {"measurement": "Plasma Insulin Fold Over Control", "setting": "[2]; 140 mg/kg QD 3on/4off", "result": 5.01, "unit": "fold"},
      {"measurement": "Mean Plasma Insulin at 2 hr.", "setting": "[2]; 210 mg/kg QW", "result": 3.96, "unit": "ng/mL"},
      {"measurement": "Plasma Insulin Fold Over Control", "setting": "[2]; 210 mg/kg QW", "result": 8.29, "unit": "fold"},
      {"measurement": "inhibition of Akt, S6, and 4EBP phosphorylation", "setting": "PTEN mutant cells", "result": "not"},
      {"measurement": "anti-tumor activity in 786-0 model", "setting": "[3]; orally at 60 and 120 mg/kg, compared to MDA derived tumors", "result": "decreased activity"}
    ]},
    {"molecule": "CC(C)n1nc(-c2ccc3oc(N)nc3c2)c2c(N)ncnc21", "note": "[Compound B]", "values": [
      {"measurement": "TGI", "setting": "[1]; 0.6 mg/kg PO QD 5on/2off for 21 days, not significantly different from control", "result": 4.5, "unit": "%"},
      {"measurement": "Mean Plasma Insulin at 2 hr.", "setting": "[2]; 0.3 mg/kg QD", "result": 3.74, "unit": "ng/mL"},
      {"measurement": "Mean Plasma Insulin at 2 hr.", "setting": "[2]; 1.0 mg/kg QD 3on/4off", "result": 2.83, "unit": "ng/mL"},
      {"measurement": "Mean Plasma Insulin at 2 hr.", "setting": "[2]; 3.0 mg/kg QW", "result": 5.94, "unit": "ng/mL"},
      {"measurement": "inhibition of Akt, S6, and 4EBP phosphorylation", "setting": "PTEN mutant cells", "result": "selective inhibition"},
      {"measurement": "inhibition of kinase activity and tumor growth in 786-0 model", "setting": "[3]; orally as a solution at 1 mg/kg (QD)", "result": "effective"}
    ]}
  ]
}
